{"source": "patent US8198285B2", "about": "“Pyrazine derivatives” (Astrazeneca AB, priority 2010, dated 2012)", "key": {"[1]": {"test_system": "Female Sprague Dawley rats", "test": "Increased bone formation in rats: femur histopathology", "format": "in vivo", "details": "rat, oral", "method": "For in vitro osteogenesis, human adipose-derived stem cells (hADSC) (Invitrogen, UK; catalogue number R7788-115) were seeded into 12-well plates at a density of 5000 cells/cm^2 and were cultured in a basal media of phenol red-free Dulbecco's Modified Eagles Medium (DMEM; Sigma-Aldrich, UK; catalogue number D1145) supplemented with 5% fetal bovine serum (FBS, Gibco, UK; catalogue number 10270) and 2 mM GlutaMax® (Gibco; catalogue number 35050). […] In osteogenic positive control wells, basal media was replaced with a differentiation media; phenol red-free DMEM supplemented with 5% FBS, 2 mM GlutaMax®, 50 μg/ml L-ascorbic acid (Sigma-Aldrich; Catalogue no. A8960), 5 mM β-glycerophosphate (Calbiochem, UK; catalogue number 35675), and 10 nM dexamethasone (Sigma-Aldrich; catalogue number D4902). The cultures were incubated at 37° C. in 5% CO2 with media and compound was replaced every 3-4 days over a time-course of 24 days. The formation of mineralized bone nodules was assessed during the time-course using Alizarin Red S staining. At numerous times throughout the time-course, cells were fixed with 4% paraformaldehyde (Sigma-Aldrich; catalogue number P6148) for 20 min, followed by three washes with phosphate buffered saline (PBS), without calcium chloride and magnesium chloride, (Sigma-Aldrich; catalogue number D8537), before being stained with 40 mM Alizarin Red S (Sigma-Aldrich; catalogue number A5533) (pH4.2) for 20 min at room temperature. Plates were placed on a rocking platform (50 rpm) during staining After staining, cells were washed three times with PBS, and three times with water. Cells were imaged using a Leica M165FC stereomicroscope and associated Leica Application Suite imaging software (Leica Microsystems, UK). The amount of mineralisation was quantified through the extraction of the Alizarin Red S stain from bone nodules using a cetylpyridinium chloride extraction method, previously described (Gregory et al., Analytical Biochemistry, 2004, 329: 77-84; Hwang et al., Stem Cells and Development 17: 963-970, 2008). Briefly, Alizarin Red S stain was extracted from bone nodules through the addition of 1 ml, to each well, of a cetylpyridium chloride buffer consisting of 10% cetylpyridium chloride (Sigma-Aldrich; catalogue number C0732) in 10 mM Na3PO4 (Sigma-Aldrich; catalogue number 342483) (pH7.0) and incubation for 1 h at 37° C. Following incubation, 200 μl aliquots were transferred to 96-well format and the absorbance at 550 nm was determined using a microplate spectrophotometer (SpectraMax Plus, Molecular Devices, USA). Data were expressed as mean absorbance at 550 nm±Standard error of mean (SEM). Differences between groups were examined for statistical significance using one-way analysis of variance (ANOVA) followed by Tukey's multiple comparison post hoc test. P<0.05 was considered significant. […] Experiments were performed in triplicate. […] Data are shown as mean absorbance at 550 nm and analysed using one-way ANOVA followed by Tukey's multiple comparison post hoc test: n=9; ***, P<0.001. […] Female Sprague Dawley rats (Charles River CRL:CD rats, Deal, Margate, UK) aged between 12 and 16 weeks (230-340 g) were dosed with either compound or vehicle with a 5 mL/kg volume administered by oral gavage using straight steel (75 mm, 16 gauge) oral gavage feeding needles (Vet-Tech Solutions Ltd, Congleton, UK) between 7 and 10 am each day. Compound or vehicle was dosed at various doses (including 2.5, 5, 15 or 50 mg/kg/day freebase doses equivalent to 3, 6, 18 and 59 mg/kg of tri-hydrochloride salt) once a day for seven to fourteen days. In some studies a serum sample was taken prior to treatment to measure baseline serum bone biomarkers following overnight fasting. Blood was sampled from the tail vein and serum prepared by adding the blood to serum gel blood collection tubes (Microvette 500 Z-gel, catalogue number 20.1344, Sarstedt, Leicester, UK) and centrifuging the tubes for at 13000 rpm for 5 min at 4° C. […]"}, "[2]": {"test_system": "N-terminal propeptide of type I procollagen (P1NP)", "test": "Bone biomarker evaluation: serum P1NP assay", "format": "in vivo, rat", "details": "oral once a day, 7 consecutive days, female CRL:CD rats", "method": "For in vitro osteogenesis, human adipose-derived stem cells (hADSC) (Invitrogen, UK; catalogue number R7788-115) were seeded into 12-well plates at a density of 5000 cells/cm^2 and were cultured in a basal media of phenol red-free Dulbecco's Modified Eagles Medium (DMEM; Sigma-Aldrich, UK; catalogue number D1145) supplemented with 5% fetal bovine serum (FBS, Gibco, UK; catalogue number 10270) and 2 mM GlutaMax® (Gibco; catalogue number 35050). […] The formation of mineralized bone nodules was assessed during the time-course using Alizarin Red S staining. […] The amount of mineralisation was quantified through the extraction of the Alizarin Red S stain from bone nodules using a cetylpyridinium chloride extraction method, previously described (Gregory et al., Analytical Biochemistry, 2004, 329: 77-84; Hwang et al., Stem Cells and Development 17: 963-970, 2008). […] Following incubation, 200 μl aliquots were transferred to 96-well format and the absorbance at 550 nm was determined using a microplate spectrophotometer (SpectraMax Plus, Molecular Devices, USA). Data were expressed as mean absorbance at 550 nm±Standard error of mean (SEM). […] Data are shown as mean absorbance at 550 nm and analysed using one-way ANOVA followed by Tukey's multiple comparison post hoc test: n=9; ***, P<0.001. […]"}, "[3]": {"biological_target": "DYRK1a (Dual Specificity Tyrosine Phosphorylated and Regulated Kinase 1a) (Homo sapiens, UniProt Q13627)", "test": "Inhibitory activity against DYRK1a", "format": "biochemical"}}, "note": "Where a name gives a salt, the structure may show the parent alone.", "data": [{"compound": "COCCCNCCCc1ccc(-c2cnc(N)c(C(=O)Nc3cccnc3)n2)cc1", "note": "[Example 1, 3-Amino-6-(4-{3-[(3-methoxypropyl)amino]propyl}phenyl)-N-pyridin-3-ylpyrazine-2-carboxamide tri-hydrochloride]", "values": [{"measurement": "Histopathology, morphology in the femur", "setting": "[1]; 5 mg/kg, 7 or 14 days, vs vehicle", "value": "no differences in morphology in the femur"}, {"measurement": "Focal bone masses in the sub-chondral region", "setting": "[1]; 15 mg/kg, 14 days", "value": "2 out of 10"}, {"measurement": "Histopathology, bone formation in femur", "setting": "[1]; 15 mg/kg, 14 days", "value": "evidence of bone formation in both the sub-chondral region and cortical region"}, {"measurement": "Histopathology, bone marrow", "setting": "[1]; 50 mg/kg, 7 days", "value": "histological evidence of bone marrow cell mobilization and differentiation"}, {"measurement": "Histopathology, cancellous bone compartment", "setting": "[1]; 50 mg/kg, 7 days", "value": "evidence of increased bone within the cancellous bone compartment"}, {"measurement": "Histopathology, bone changes in femur", "setting": "[1]; 50 mg/kg, 14 days", "value": "broader range of bone changes suggestive of bone formation"}, {"measurement": "Histopathology, osteoblast hypertrophy", "setting": "[1]; 15 and 50 mg/kg, 7 days", "value": "evidence of osteoblast hypertrophy"}, {"measurement": "Histopathology, osteoid and bone in femur", "setting": "[1]; 15 and 50 mg/kg, 7 days", "value": "dose related changes of increased osteoid and bone in both the sub-chondral region and in the cortical bone in the shaft"}, {"measurement": "Serum P1NP levels (marker of bone formation)", "setting": "[2]", "value": "increase in serum P1NP levels"}, {"measurement": "Inhibitory activity against DYRK1a", "setting": "[3]", "value": "inhibitory activity"}]}]}
